Test results taken from patent US20030040541A1, “Use of bismuth subgallate in inhibition of production of nitric oxide synthase” (Hedonist Biochemical Technologies Co., Ltd., priority 2001, published 2003).

Test system: RAW 264.7 cells
Assay: NO production (nitrite, Griess reaction) by LPS/IFN-γ activated RAW 264.7 cells
Type: cell-based, mice
Conditions: 24 hours
Experimental: The cells of the mice macrophage cell line RAW 264.7 (under accession number CCRC 60001), which was obtained from Cell Culture Research Center, Food Industry Research and Development Institute, Hsinchu, Taiwan, R.O.C., were used for the test.
The RAW 264.7 cells were incubated in a 96 well tissue culture plate (Falcon). After 24 hours, the cells were activated with Dulbecco's Modified Eagle Medium (DMEM, 2014, GibcoBRL) in the presence and absence of 100 ng/ml LPS, 100 U/ml IFN-γ and various concentrations (10 μM, 20 μM, 50 μM, 100 μM and 200 μM) of bismuth subgallate (Hwang et al., 1994, J. Biol. Chem. 269, p. 711-715). After 24 hours, 50 μl of the supernatant from each well was assayed for the presence of nitrite through the Saville modification of the Griess reaction (Green et al., Analytical Biochem, 1982, 126:131-138). The results were represented by the means plus standard errors values (Mean±SE) of three repetitions.
The effect of borneol on the inhibition of NO synthase was tested through the same experimental procedures as described in Example 1. Various concentrations of borneol (0 μM, 40 μM, 80 μM, 160 μM, 320 μM and 640 μM) were used to replace bismuth subgallate of Example 1. The results were represented by the mean values of three repetitions with standard errors (Mean±SE).
The effect of bismuth subgallate in combination with borneol on the inhibition of NO synthase was tested through the similar experimental procedures as described in Example 1. The following concentrations of Bismuth subgallate: 0 μM, 12.5 μM, 25 μM, 50 μM and 100 μM, were combined with the following concentrations of borneol: 0 μM, 10 μM, 20 μM and 40 μM, respectively, to obtain the combinations for the replacement of bismuth subgallate used in Example 1. The results were represented by the mean values of three repetitions with standard errors (Mean±SE).

Row | Compound | NO production (nitrite concentration in supernatant) (borneol 0, 40, 80, 160, 320, 640 μM, LPS + IFN-γ activated cells, FIG. 2) | NO production (nitrite concentration in supernatant) (bismuth subgallate 10, 20, 50, 100, 200 μM, 100 ng/ml LPS + 100 U/ml IFN-γ, FIG. 1) | concentration dependence of NO production (bismuth subgallate 10-200 μM, LPS + IFN-γ activated cells, FIG. 1)
1 | CC1(C)C2CCC1(C)C(O)C2 (stereo not drawn) [borneol] | not significantly inhibited | – | –
2 | bismuth subgallate | – | showed a reduction in nitrite concentration | inversely proportional to the increase in the concentration of bismuth subgallate
